Test results published in the supplement of paper PMC10307832.

What was measured:
Test in all cases: relative viability (nuclei count vs DMSO), 5 days (fraction); higher = more cells survive
NCI-H1915 = system: NCI-H1915
How it was run: (§1)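 Lung cancer cell lines were pin-tool dosed in 1536-well plates on the day after seeding, with either a lone drug or a fixed anchor-drug dose plus five library-drug doses (not always all listed) in √10 steps. Nuclei were counted on 4× images after 5 days. Relative viability is the ratio of treated-well to vehicle-well nuclei counts, with each value a median of duplicate plates.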

COR-L 105 = system: COR-L 105
How it was run: as §1

NCI-H1944 = system: NCI-H1944
How it was run: as §1

HCC-78 = system: HCC-78
How it was run: as §1

UMC-11 = system: UMC-11
How it was run: as §1

SK-LU-1 = system: SK-LU-1
How it was run: as §1

LXF-289 = system: LXF-289
How it was run: as §1

LC-2-ad = system: LC-2-ad
How it was run: as §1

NCI-H1793 = system: NCI-H1793
How it was run: as §1

EPLC-272H = system: EPLC-272H
How it was run: as §1

NCI-H460 = system: NCI-H460
How it was run: as §1

A-427 = system: A-427
How it was run: as §1

NCI-H1792 = system: NCI-H1792
How it was run: as §1

HOP-62 = system: HOP-62
How it was run: as §1

NCI-H1975 = system: NCI-H1975
How it was run: as §1

NCI-H1755 = system: NCI-H1755
How it was run: as §1

NCI-H358 = system: NCI-H358
How it was run: as §1

SW 900 = system: SW 900
How it was run: as §1

LCLC-97TM1 = system: LCLC-97TM1
How it was run: as §1

NCI-H2170 = system: NCI-H2170
How it was run: as §1

NCI-H2085 = system: NCI-H2085
How it was run: as §1

LU99A = system: LU99A
How it was run: as §1

NCI-H2342 = system: NCI-H2342
How it was run: as §1

HCC-366 = system: HCC-366
How it was run: as §1

Molecule `COc1cc(N2CCC(C(N)=O)CC2)ccc1Nc1nc(N)c(Cl)c(Nc2ccccc2S(=O)(=O)C(C)C)n1` [HG-5-88-01] + Nc1nc2[nH]cc(CCc3ccc(C(=O)N[C@@H](CCC(=O)O)C(=O)O)cc3)c2c(=O)[nH]1 [Pemetrexed] (partner 0.2 µM) has a relative viability (NCI-H1915; first compound 0.04 µM) of 0.471, a relative viability (NCI-H1915; first compound 0.1265 µM) of 0.5 and a relative viability (NCI-H1915; first compound 0.4 µM) of 0.352. For the same molecule, the relative viability (NCI-H1915; first compound 1.265 µM) was 0.541, the relative viability (NCI-H1915; first compound 4 µM) was 0.441 and the relative viability (COR-L 105; first compound 0.04 µM) was 1.02. For the same molecule, the relative viability (COR-L 105; first compound 0.1265 µM) was 1.21, the relative viability (COR-L 105; first compound 0.4 µM) was 1.18 and the relative viability (COR-L 105; first compound 1.265 µM) was 0.989. The relative viability (COR-L 105; first compound 4 µM) was 0.899, the relative viability (NCI-H1944; first compound 0.04 µM) was 0.642 and the relative viability (NCI-H1944; first compound 0.1265 µM) was 0.695. It also gave a relative viability (NCI-H1944; first compound 0.4 µM) of 0.643, a relative viability (NCI-H1944; first compound 1.265 µM) of 0.615 and a relative viability (NCI-H1944; first compound 4 µM) of 0.564. It also gave a relative viability (HCC-78; first compound 0.04 µM) of 0.824, a relative viability (HCC-78; first compound 0.1265 µM) of 0.814 and a relative viability (HCC-78; first compound 0.4 µM) of 0.884. For the same molecule, the relative viability (HCC-78; first compound 1.265 µM) was 0.849, the relative viability (HCC-78; first compound 4 µM) was 0.795 and the relative viability (UMC-11; first compound 0.04 µM) was 0.797. For the same molecule, the relative viability (UMC-11; first compound 0.1265 µM) was 0.772, the relative viability (UMC-11; first compound 0.4 µM) was 0.844 and the relative viability (UMC-11; first compound 1.265 µM) was 0.827. The relative viability (UMC-11; first compound 4 µM) was 0.789, the relative viability (SK-LU-1; first compound 0.04 µM) was 0.919 and the relative viability (SK-LU-1; first compound 0.1265 µM) was 0.956. It also gave a relative viability (SK-LU-1; first compound 0.4 µM) of 0.925, a relative viability (SK-LU-1; first compound 1.265 µM) of 1.01 and a relative viability (SK-LU-1; first compound 4 µM) of 0.866. For the same molecule, the relative viability (LXF-289; first compound 0.04 µM) was 0.931, the relative viability (LXF-289; first compound 0.1265 µM) was 0.933 and the relative viability (LXF-289; first compound 0.4 µM) was 0.887. It also gave a relative viability (LXF-289; first compound 1.265 µM) of 0.93, a relative viability (LXF-289; first compound 4 µM) of 0.926 and a relative viability (LC-2-ad; first compound 0.04 µM) of 0.257. For the same molecule, the relative viability (LC-2-ad; first compound 0.1265 µM) was 0.257, the relative viability (LC-2-ad; first compound 0.4 µM) was 0.259 and the relative viability (LC-2-ad; first compound 1.265 µM) was 0.275. It also gave a relative viability (LC-2-ad; first compound 4 µM) of 0.267, a relative viability (NCI-H1793; first compound 0.04 µM) of 0.829 and a relative viability (NCI-H1793; first compound 0.1265 µM) of 0.8. The relative viability (NCI-H1793; first compound 0.4 µM) was 0.828, the relative viability (NCI-H1793; first compound 1.265 µM) was 0.692 and the relative viability (NCI-H1793; first compound 4 µM) was 0.522. The relative viability (EPLC-272H; first compound 0.04 µM) was 0.341, the relative viability (EPLC-272H; first compound 0.1265 µM) was 0.262 and the relative viability (EPLC-272H; first compound 0.4 µM) was 0.319. For the same molecule, the relative viability (EPLC-272H; first compound 1.265 µM) was 0.307, the relative viability (EPLC-272H; first compound 4 µM) was 0.0795 and the relative viability (NCI-H460; first compound 0.04 µM) was 0.0629. For the same molecule, the relative viability (NCI-H460; first compound 0.1265 µM) was 0.0611, the relative viability (NCI-H460; first compound 0.4 µM) was 0.054 and the relative viability (NCI-H460; first compound 1.265 µM) was 0.0633. The relative viability (NCI-H460; first compound 4 µM) was 0.0701, the relative viability (A-427; first compound 0.04 µM) was 0.951 and the relative viability (A-427; first compound 0.1265 µM) was 1.01. It also gave a relative viability (A-427; first compound 0.4 µM) of 1, a relative viability (A-427; first compound 1.265 µM) of 1.02 and a relative viability (A-427; first compound 4 µM) of 0.9. It also gave a relative viability (NCI-H1792; first compound 0.04 µM) of 0.769, a relative viability (NCI-H1792; first compound 0.1265 µM) of 0.825 and a relative viability (NCI-H1792; first compound 0.4 µM) of 0.751. For the same molecule, the relative viability (NCI-H1792; first compound 1.265 µM) was 0.832, the relative viability (NCI-H1792; first compound 4 µM) was 0.76 and the relative viability (HOP-62; first compound 0.04 µM) was 0.319. It also gave a relative viability (HOP-62; first compound 0.1265 µM) of 0.297, a relative viability (HOP-62; first compound 0.4 µM) of 0.288 and a relative viability (HOP-62; first compound 1.265 µM) of 0.381. The relative viability (HOP-62; first compound 4 µM) was 0.341, the relative viability (NCI-H1975; first compound 0.04 µM) was 0.27 and the relative viability (NCI-H1975; first compound 0.1265 µM) was 0.296. For the same molecule, the relative viability (NCI-H1975; first compound 0.4 µM) was 0.273, the relative viability (NCI-H1975; first compound 1.265 µM) was 0.297 and the relative viability (NCI-H1975; first compound 4 µM) was 0.203. It also gave a relative viability (NCI-H1755; first compound 0.04 µM) of 0.446, a relative viability (NCI-H1755; first compound 0.1265 µM) of 0.54 and a relative viability (NCI-H1755; first compound 0.4 µM) of 0.407. For the same molecule, the relative viability (NCI-H1755; first compound 1.265 µM) was 0.43, the relative viability (NCI-H1755; first compound 4 µM) was 0.447 and the relative viability (NCI-H358; first compound 0.04 µM) was 0.145. For the same molecule, the relative viability (NCI-H358; first compound 0.1265 µM) was 0.174, the relative viability (NCI-H358; first compound 0.4 µM) was 0.162 and the relative viability (NCI-H358; first compound 1.265 µM) was 0.132. It also gave a relative viability (NCI-H358; first compound 4 µM) of 0.148, a relative viability (SW 900; first compound 0.04 µM) of 0.504 and a relative viability (SW 900; first compound 0.1265 µM) of 0.512. It also gave a relative viability (SW 900; first compound 0.4 µM) of 0.46, a relative viability (SW 900; first compound 1.265 µM) of 0.477 and a relative viability (SW 900; first compound 4 µM) of 0.379. For the same molecule, the relative viability (LCLC-97TM1; first compound 0.04 µM) was 0.208, the relative viability (LCLC-97TM1; first compound 0.1265 µM) was 0.179 and the relative viability (LCLC-97TM1; first compound 0.4 µM) was 0.132. For the same molecule, the relative viability (LCLC-97TM1; first compound 1.265 µM) was 0.155, the relative viability (LCLC-97TM1; first compound 4 µM) was 0.131 and the relative viability (NCI-H2170; first compound 0.04 µM) was 0.286. It also gave a relative viability (NCI-H2170; first compound 0.1265 µM) of 0.28, a relative viability (NCI-H2170; first compound 0.4 µM) of 0.261 and a relative viability (NCI-H2170; first compound 1.265 µM) of 0.257. For the same molecule, the relative viability (NCI-H2170; first compound 4 µM) was 0.249, the relative viability (NCI-H2085; first compound 0.04 µM) was 0.911 and the relative viability (NCI-H2085; first compound 0.1265 µM) was 0.986. The relative viability (NCI-H2085; first compound 0.4 µM) was 0.864, the relative viability (NCI-H2085; first compound 1.265 µM) was 0.861 and the relative viability (NCI-H2085; first compound 4 µM) was 0.698. The relative viability (LU99A; first compound 0.04 µM) was 0.163, the relative viability (LU99A; first compound 0.1265 µM) was 0.211 and the relative viability (LU99A; first compound 0.4 µM) was 0.165. For the same molecule, the relative viability (LU99A; first compound 1.265 µM) was 0.193, the relative viability (LU99A; first compound 4 µM) was 0.168 and the relative viability (NCI-H2342; first compound 0.04 µM) was 0.664. For the same molecule, the relative viability (NCI-H2342; first compound 0.1265 µM) was 0.769, the relative viability (NCI-H2342; first compound 0.4 µM) was 0.704 and the relative viability (NCI-H2342; first compound 4 µM) was 0.856. It also gave a relative viability (HCC-366; first compound 0.04 µM) of 0.197, a relative viability (HCC-366; first compound 0.1265 µM) of 0.146 and a relative viability (HCC-366; first compound 0.4 µM) of 0.113. The relative viability (HCC-366; first compound 1.265 µM) was 0.237 and the relative viability (HCC-366; first compound 4 µM) was 0.287.
